Assay results as given in BindingDB's records for doi:10.1021/jm001055e (Friedrich-Alexander University, 2001).

Biological target: T1, D(4) dopamine receptor (Homo sapiens, UniProt P21917)
T1 sequence (P21917 whole entry): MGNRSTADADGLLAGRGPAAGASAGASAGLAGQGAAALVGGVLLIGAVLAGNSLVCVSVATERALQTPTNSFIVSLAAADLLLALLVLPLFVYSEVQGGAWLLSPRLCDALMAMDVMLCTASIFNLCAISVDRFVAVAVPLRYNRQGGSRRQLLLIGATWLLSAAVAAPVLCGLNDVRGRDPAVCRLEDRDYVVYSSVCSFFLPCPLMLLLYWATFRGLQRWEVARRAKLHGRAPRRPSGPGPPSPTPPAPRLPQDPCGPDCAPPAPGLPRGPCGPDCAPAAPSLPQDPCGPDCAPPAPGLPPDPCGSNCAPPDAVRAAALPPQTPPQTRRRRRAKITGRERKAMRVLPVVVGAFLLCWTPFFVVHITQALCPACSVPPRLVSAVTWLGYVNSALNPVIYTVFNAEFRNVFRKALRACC
Assay: Ability to displace [3H]spiperone from dopamine receptor D4.4 expressed in CHO-K1 cells

| SMILES | Ki [nM] |
| --- | --- |
| OCc1ccc2c(CN3CCN(c4ccccc4)CC3)cnn2c1 | 19.5 |
| Clc1ccc(N2CCN(Cc3ccc[nH]3)CC2)cc1 | 26.3 |
| C#Cc1ccc(N2CCN(Cc3cnn4ccccc34)CC2)cc1 | 4.37 |
| Clc1ccc(N2CCN(Cc3cc4ccccc4[nH]3)CC2)cc1 | 18.2 |
| N#CC(C#N)=Cc1ccc(CN2CCN(c3ccc(Cl)cc3)CC2)[nH]1 [4-(4-Chloro-phenyl)-1-[5-(2,2-dicyano-vinyl)-1H-pyrrol-2-ylmethyl]-piperazin-1-ium] | 9.55 |
| Clc1cccc(N2CCN(Cc3cnn4ccc5ccccc5c34)CC2)c1 | 794 |
| Clc1ccc(N2CCN(Cc3cc4ccccn4n3)CC2)cc1 [4-(4-Chloro-phenyl)-1-pyrazolo[1,5-a]pyridin-2-ylmethyl-piperazin-1-ium] | 2.19 |
| Clc1ccc(N2CCN(Cc3cc[nH]c3)CC2)cc1 | 38.9 |
| Cc1cccn2ncc(CN3CCN(c4ccc(Cl)cc4)CC3)c12 [3-[4-(4-Chloro-phenyl)-piperazin-1-ylmethyl]-4-methyl-pyrazolo[1,5-a]pyridine] | 50.1 |
| Clc1ccc(N2CCN(Cc3cnn4c(I)cccc34)CC2)cc1 | 5.01 |
| C#Cc1cccc2c(CN3CCN(c4ccc(Cl)cc4)CC3)cnn12 [3-[4-(4-Chloro-phenyl)-piperazin-1-ylmethyl]-7-ethynyl-pyrazolo[1,5-a]pyridine] | 1.23 |
| Cc1cccc2c(CN3CCN(c4ccc(Cl)cc4)CC3)cnn12 [4-(4-Chloro-phenyl)-1-(7-methyl-pyrazolo[1,5-a]pyridin-3-ylmethyl)-piperazin-1-ium] | 2.69 |
| Clc1cccc(N2CCN(Cc3cnn4c3ccc3ccccc34)CC2)c1 | 218 |
| FC(F)(F)c1cccc(N2CCN(Cc3cnn4ccccc34)CC2)c1 | 1.91 |
| Clc1ccc(N2CCN(Cc3cnn4ccccc34)CC2)cc1Cl | 5.62 |
| Clc1ccc(N2CCN(Cc3ccccc3)CC2)cc1 | 251 |
| CCN1CCN(Cc2cnn3ccccc23)CC1 | 23900 |
| Fc1ccc(N2CCN(Cc3cnn4ccccc34)CC2)cc1 | 20 |
